Assay results as given in patent publication US20240059691A1 (KALVISTA PHARMACEUTICALS LIMITED, priority 2020, published 2024).

What was measured:
[1] = Pharmacokinetics following a single intravenous dose and a single oral dose in male Sprague-Dawley rats (oral bioavailability, half-life); assay type: in vivo; conditions: rat, plasma, 10% DMSO/10% Cremophor EL/80% SWFI; for bioavailability: read-out: F % (oral bioavailability)
Description: Pharmacokinetic studies of the compounds in Table 16 were performed to assess the pharmacokinetics following a single intravenous dose and a single oral dose in male Sprague-Dawley rats. Two rats were given a single intravenous dose of 1 mL/kg of a nominal 1 mg/mL (1 mg/kg) composition of test compound in 10% DMSO/10% Cremophor EL/80% SWFI vehicle. Example 2191 was dosed at 1 mL/kg of a nominal 2 mg/mL (2 mg/kg) using the same vehicle.
Two rats were given a single oral dose of 5 mL/kg of a nominal 1 mg/mL (5 mg/kg) composition of test compound in 10% DMSO/10% Cremophor EL/80% SWFI vehicle. Example 2191 was dosed at 5 mL/kg of a nominal 2 mg/mL (10 mg/kg) using the same vehicle.
Following intravenous dosing, blood samples were collected over a period of 12 h. Sample times were 2, 5, 15 and 30 min then 1, 2, 4, 6, and 12 h. Following oral dosing, blood samples were collected over a period of 24 h. Sample times were 5, 15 and 30 min then 1, 2, 4, 6, 8, 12 and 24 h.
Following collection, blood samples were centrifuged and the plasma fraction analysed for concentration of test compound by LCMS. Oral bioavailability and half-life calculations from these studies were obtained using Phoenix WinNonlin (v8.0) and are shown below: […]

Plasma Kallikrein = Plasma Kallikrein (Homo sapiens (Human), UniProt P03952); assay: Determination of related protease inhibition: Plasma Kallikrein (fluorogenic substrate at Km); assay type: biochemical; conditions: 25° C., read-out: IC50 (human PKal)
Procedure, shortened: (§1)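 Fluorogenic kinetic assay: human enzyme, substrate at Km, titrated inhibitor; 5 min read at 25 °C; IC50 from % of uninhibited rate.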

Human Factor XIIa = Human Factor XIIa (Homo sapiens (Human), UniProt P00748); assay: Determination of FXIIa inhibition (fluorogenic substrate H-DPro-Phe-Arg-AFC, IC50 assay); assay type: biochemical; conditions: substrate H-DPro-Phe-Arg-AFC at Km, 25° C.; class scale A-G
Procedure, shortened: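 IC50 derived from % remaining activity, taken as the linear fluorescence rate over a 5 min read at 25° C. Substrate H-DPro-Phe-Arg-AFC was used at its Km (Michaelis-Menten) with human FXIIa and serial compound dilutions, 25° C.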

FXIa = FXIa (Homo sapiens (Human), UniProt P03951); assay: Determination of related protease inhibition: FXIa (fixed substrate concentration of 100 μM); assay type: biochemical; conditions: 25° C.
Description: Determination of Related Protease Inhibition
In vitro inhibition of related proteases was determined using an ([…] assay based on standard literature methods (see e.g. Shori et al., Biochem. Pharmacol., 1992, 43, 1209; Bouckaert et al., European Journal of Medicinal Chemistry 110 (2016) 181). Human serine protease enzymes Plasma Kallikrein, KLK1, FXa, Plasmin, Thrombin and Trypsin were assayed for enzymatic activity using an appropriate fluorogenic substrate at Km concentration, FXIa at fixed substrate concentration of 100 μM, and various concentrations of the test compound. Protease activity was measured by monitoring the accumulation of liberated fluorescence from the substrate over […]. The linear rate of fluorescence increase per minute was expressed as percentage (%) activity. IC50 values were calculated as the concentration of inhibitor giving 50% inhibition of the uninhibited enzyme activity (100%).

FXa = FXa (Homo sapiens (Human), UniProt P00742); assay: Determination of related protease inhibition: FXa (fluorogenic substrate at Km); assay type: biochemical; conditions: 25° C.
Procedure, shortened: as §1

Thrombin = Thrombin (Homo sapiens (Human), UniProt P00734); assay: Determination of related protease inhibition: Thrombin (fluorogenic substrate at Km); assay type: biochemical; conditions: 25° C.
Procedure, shortened: as §1

KLK1 = KLK1 (Homo sapiens (Human), UniProt P06870); assay: Determination of related protease inhibition: KLK1 (fluorogenic substrate at Km); assay type: biochemical; conditions: 25° C.
Procedure, shortened: as §1

Plasma Kallikrein, sequence (P03952 391-638): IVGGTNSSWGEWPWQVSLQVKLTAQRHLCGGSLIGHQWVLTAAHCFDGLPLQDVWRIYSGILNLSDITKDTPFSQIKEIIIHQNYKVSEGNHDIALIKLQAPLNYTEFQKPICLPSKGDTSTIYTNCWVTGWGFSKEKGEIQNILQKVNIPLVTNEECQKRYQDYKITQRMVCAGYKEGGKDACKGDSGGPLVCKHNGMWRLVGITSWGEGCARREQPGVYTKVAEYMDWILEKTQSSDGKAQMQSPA
Plasma Kallikrein, sequence (P03952 20-390 partner): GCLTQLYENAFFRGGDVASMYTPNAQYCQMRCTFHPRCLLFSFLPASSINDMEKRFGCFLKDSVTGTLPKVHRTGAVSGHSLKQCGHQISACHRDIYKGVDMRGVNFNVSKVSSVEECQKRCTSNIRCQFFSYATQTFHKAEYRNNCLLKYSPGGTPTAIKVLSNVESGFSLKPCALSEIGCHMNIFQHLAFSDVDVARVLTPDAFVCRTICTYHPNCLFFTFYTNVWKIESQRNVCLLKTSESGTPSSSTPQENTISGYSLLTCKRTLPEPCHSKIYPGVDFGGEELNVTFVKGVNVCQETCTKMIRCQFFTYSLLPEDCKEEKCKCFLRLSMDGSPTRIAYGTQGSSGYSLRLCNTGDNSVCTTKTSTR
KLK1, sequence (P06870 25-262): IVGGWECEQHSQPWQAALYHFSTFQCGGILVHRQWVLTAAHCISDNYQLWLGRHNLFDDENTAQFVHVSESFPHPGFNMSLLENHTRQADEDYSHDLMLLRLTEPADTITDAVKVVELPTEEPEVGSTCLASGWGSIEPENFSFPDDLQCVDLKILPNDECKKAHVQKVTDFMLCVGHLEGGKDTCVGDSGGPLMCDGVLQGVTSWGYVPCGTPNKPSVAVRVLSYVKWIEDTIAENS
FXa, sequence (P00742 235-488): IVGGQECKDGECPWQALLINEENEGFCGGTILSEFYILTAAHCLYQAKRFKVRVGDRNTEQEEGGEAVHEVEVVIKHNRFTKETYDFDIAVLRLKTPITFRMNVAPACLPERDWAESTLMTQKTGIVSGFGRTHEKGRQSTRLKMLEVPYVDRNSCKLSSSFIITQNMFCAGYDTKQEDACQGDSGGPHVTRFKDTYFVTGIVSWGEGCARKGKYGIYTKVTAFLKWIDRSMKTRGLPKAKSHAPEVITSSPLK
FXa, sequence (P00742 41-179 partner): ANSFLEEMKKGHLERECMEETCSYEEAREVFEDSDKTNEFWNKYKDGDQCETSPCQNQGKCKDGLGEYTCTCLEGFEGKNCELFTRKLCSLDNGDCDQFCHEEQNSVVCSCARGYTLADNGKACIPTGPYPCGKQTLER
Human Factor XIIa, sequence (P00748 373-615): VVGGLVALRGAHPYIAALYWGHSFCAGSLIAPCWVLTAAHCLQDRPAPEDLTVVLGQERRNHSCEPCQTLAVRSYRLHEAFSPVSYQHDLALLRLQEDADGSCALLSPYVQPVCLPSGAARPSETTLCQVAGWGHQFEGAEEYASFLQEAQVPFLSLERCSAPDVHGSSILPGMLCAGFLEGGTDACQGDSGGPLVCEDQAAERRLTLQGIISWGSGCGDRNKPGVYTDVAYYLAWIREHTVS
FXIa, sequence (P03951 388-625): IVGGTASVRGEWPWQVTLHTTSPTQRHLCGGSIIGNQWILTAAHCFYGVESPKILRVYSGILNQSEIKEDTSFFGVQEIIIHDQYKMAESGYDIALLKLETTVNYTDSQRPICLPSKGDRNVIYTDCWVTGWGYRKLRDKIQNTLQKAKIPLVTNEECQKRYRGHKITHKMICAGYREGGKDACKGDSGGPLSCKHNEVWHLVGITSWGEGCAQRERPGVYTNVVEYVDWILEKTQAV
FXIa, sequence (P03951 19-387 partner): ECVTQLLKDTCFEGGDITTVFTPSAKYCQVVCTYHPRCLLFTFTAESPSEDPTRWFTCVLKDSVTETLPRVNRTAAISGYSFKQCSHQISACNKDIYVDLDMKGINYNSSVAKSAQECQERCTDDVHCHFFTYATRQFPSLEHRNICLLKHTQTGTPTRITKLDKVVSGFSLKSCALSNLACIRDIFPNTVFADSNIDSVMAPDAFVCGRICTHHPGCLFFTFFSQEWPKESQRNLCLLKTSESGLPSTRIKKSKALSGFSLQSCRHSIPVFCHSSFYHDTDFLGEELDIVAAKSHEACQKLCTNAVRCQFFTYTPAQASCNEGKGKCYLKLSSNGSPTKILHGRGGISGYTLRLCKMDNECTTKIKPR

Row | Compound | half-life [1] [h] | bioavailability [1] [%] | IC50 (Plasma Kallikrein) [µM] | IC50 (Human Factor XIIa) [µM] | IC50 (FXIa) [µM] | IC50 (FXa) [µM] | IC50 (Thrombin) [µM] | IC50 (KLK1) [µM]
1 | Cn1ccc(COc2cc(CNc3cccc4c(N)nccc34)ccn2)cc1=O [Example 4301, 4-[[4-[[(1-Amino-5-isoquinolyl)amino]methyl]-2-pyridyl]oxymethyl]-1-methyl-pyridin-2-one] | 2.19 | 8.5 | > 4 | 0.3 to 1 |  |  |  | 
2 | CN1CC2C[C@H]1C[C@H]2OCc1ccc(CNc2ccc3c(N)nccc3c2)c(F)c1 (single isomer, unassigned) [Example 2198, N6-(2-fluoro-4-((((4S*,5R*)-2-methyl-2-azabicyclo[2.2.1]heptan-5-yl)oxy)methyl)benzyl)isoquinoline-1,6-diamine] |  |  | 3 to 10 | 0.1 to 0.3 | > 20 | 3 to 10 | 10 to 40 | 
3 | CN1CCC(CCc2ccc(CNc3ccc4c(N)nccc4c3)cc2)CC1 [Example 2177, N6-(4-(2-(1-methylpiperidin-4-yl)ethyl)benzyl)isoquinoline-1,6-diamine] |  |  | 1 to 3 | 0.1 to 0.3 | > 40 | 3 to 10 | 3 to 10 | 
4 | Nc1nccc2c(NCc3ccnc(OCC4CCn5ccnc5C4)c3)cccc12 (stereo not drawn) [Example 4298, N5-((2-((5,6,7,8-tetrahydroimidazo[1,2-a]pyridin-7-yl)methoxy)pyridin-4-yl)methyl)isoquinoline-1,5-diamine] |  |  | > 40 | 0.01 to 0.1 | 10 to 40 |  | > 40 | 3 to 10
5 | CC(C)N1C[C@H]2C[C@@H]1CN2CCc1ccc(CNc2cccc3c(N)nccc23)c(F)c1 (stereo in doubt) [Example 2213, N5-[[2-fluoro-4-[2-[(1R,4R)-5-isopropyl-2,5-diazabicyclo[2.2.1]heptan-2-yl]ethyl]phenyl]methyl]isoquinoline-1,5-diamine] |  |  | 10 to 40 | 0.1 to 0.3 | > 40 | > 40 | > 40 | 10 to 40
6 | CN1CCC(COc2cc(CNc3ccc4c(N)nccc4c3)ccn2)CC1 [Example 4261, N6-((2-((1-methylpiperidin-4-yl)methoxy)pyridin-4-yl)methyl)isoquinoline-1,6-diamine] |  |  | 3 to 10 | 0.01 to 0.1 | > 20 | 0.3 to 1 | 3 to 10 | 
7 | CN1CC2C[C@@H]1C[C@H]2OCc1ccc(CNc2ccc3c(N)nccc3c2)c(F)c1 (single isomer, unassigned) [Example 2199, N6-(2-fluoro-4-((((4R*,5R*)-2-methyl-2-azabicyclo[2.2.1]heptan-5-yl)oxy)methyl)benzyl)isoquinoline-1,6-diamine] |  |  | 3 to 10 | 0.01 to 0.1 | > 20 | 3 to 10 | 10 to 40 | 
8 | CN1CCC(OCc2ccc(CNc3ccc4c(N)nccc4c3)c(Cl)c2)CC1 [Example 2192, N6-(2-chloro-4-(((1-methylpiperidin-4-yl)oxy)methyl)benzyl)isoquinoline-1,6-diamine] |  |  | 3 to 10 | 0.1 to 0.3 | > 40 | 1 to 3 | 3 to 10 | 
9 | CN1CCC(COc2ccc(CNc3ccc4c(N)nccc4c3)cn2)CC1 [Example 1005, N6-((6-((1-methylpiperidin-4-yl)methoxy)pyridin-3-yl)methyl)isoquinoline-1,6-diamine] |  |  | 3 to 10 | 0.1 to 0.3 | > 40 | 3 to 10 | 10 to 40 | 
10 | CN1CCC(COc2ccc(CNc3cccc4c(N)nccc34)cn2)CC1 [Example 1009, N5-((6-((1-methylpiperidin-4-yl)methoxy)pyridin-3-yl)methyl)isoquinoline-1,5-diamine] |  |  | 3 to 10 | 0.1 to 0.3 | > 40 | > 40 | > 40 | 
11 | CCN1CCC(COc2ccc(CNc3ccc4c(N)nccc4c3)cn2)CC1 [Example 1010, 6-N-({6-[(1-ethylpiperidin-4-yl)methoxy]pyridin-3-yl}methyl)isoquinoline-1,6-diamine] |  |  | 3 to 10 | 0.1 to 0.3 | > 40 | 10 to 40 | 10 to 40 | 
12 | CC(C)N1CCC(COc2cc(CNc3cccc4c(N)nccc34)ccn2)CC1 [Example 4299, N5-[[2-[(1-isopropyl-4-piperidyl)methoxy]-4-pyridyl]methyl]isoquinoline-1,5-diamine] | 10.1 | 8.3 | > 4 | 0.1 to 0.3 |  |  |  | 
13 | CN1CCC(OCc2ccc(CNc3ccc4c(N)nccc4c3)cc2)C(F)(F)C1 (stereo not drawn) [Example 2194, N6-(4-(((3,3-difluoro-1-methylpiperidin-4-yl)oxy)methyl)benzyl)isoquinoline-1,6-diamine] |  |  | 10 to 40 | 1 to 3 | > 40 | 10 to 40 | 10 to 40 | 
14 | CN1CCC(COc2ncc(CNc3ccc4c(N)nccc4c3)cn2)CC1 [Example 1013, 6-N-({2-[(1-methylpiperidin-4-yl)methoxy]pyrimidin-5-yl}methyl)isoquinoline-1,6-diamine] |  |  | 3 to 10 | 0.1 to 0.3 | > 20 | 3 to 10 | 3 to 10 | 
15 | CC(C)N1CC2(CN(Cc3ccc(CNc4ccc5c(N)nccc5c4)c(F)c3)C2)C1 [Example 1037, 6-N-{[2-fluoro-4-({6-isopropyl-2,6-diazaspiro[3.3]heptan-2-yl}methyl)phenyl]methyl}isoquinoline-1,6-diamine] |  |  | 10 to 40 | 0.3 to 1 | > 40 | > 40 | 10 to 40 | 3 to 10
16 | CN1CCC(OCc2ccc(CNc3ccc4c(N)nccc4c3)cc2)CC1 [Example 2185, N6-(4-(((1-methylpiperidin-4-yl)oxy)methyl)benzyl)isoquinoline-1,6-diamine] |  |  | 3 to 10 | 0.1 to 0.3 | > 40 | 3 to 10 | 3 to 10 | 
17 | CN1CCC(CCc2ccc(CNc3cccc4c(N)nccc34)cc2)CC1 [Example 2178, 5-N-({4-[2-(1-methylpiperidin-4-yl)ethyl]phenyl}methyl)isoquinoline-1,5-diamine] |  |  | 10 to 40 | 0.01 to 0.1 | > 40 | > 40 | > 40 | 
18 | CCN1CCC(OCc2ccc(CNc3ccc4c(N)nccc4c3)c(F)c2)CC1 [Example 2202, 6-N-[(4-{[(1-ethylpiperidin-4-yl)oxy]methyl}-2-fluorophenyl)methyl]isoquinoline-1,6-diamine] |  |  | 1 to 3 | 0.1 to 0.3 | > 20 | 3 to 10 | 3 to 10 | 
19 | CN1CCC(OCc2ccc(CNc3ccc4cnccc4c3)cc2)CC1 [Example 2193, N-(4-(((1-methylpiperidin-4-yl)oxy)methyl)benzyl)isoquinolin-6-amine] |  |  | > 20 | 3 to 10 | > 20 | > 20 | > 20 | 
20 | CN1CCC(COc2ccc(CNc3ccc4cnccc4c3)cn2)CC1 [Example 1008, N-((6-((1-methylpiperidin-4-yl)methoxy)pyridin-3-yl)methyl)isoquinolin-6-amine] |  |  | 10 to 40 | 3 to 10 | > 20 | > 20 | > 20 | 
21 | Nc1nccc2cc(NCc3ccc(OCC4CCn5ccnc5C4)nc3)ccc12 (stereo not drawn) [Example 1006, N6-((6-((5,6,7,8-tetrahydroimidazo[1,2-a]pyridin-7-yl)methoxy)pyridin-3-yl)methyl)isoquinoline-1,6-diamine] |  |  | 1 to 3 | 0.1 to 0.3 | > 40 | 1 to 3 | 3 to 10 | 
